Literature values as cited in US10174388B2, “Method for selection of agents influencing intestinal motility disorders and pain” (BioGaia AB, priority 2012, dated 2019).
Where two headings read alike, the source gives them in different places.

Conditions: baseline 197 minutes in both groups

Question: For simethicone, which “median daily crying time” value (day 7) is on record?
Answer: 177 min

Question: What about the “median daily crying time” value (day 28) of the same substance?
Answer: 145 min
